# US9149034B2, “Agrochemical formulations comprising co-polymers based on diisocyanates” (BASF SE, priority 2006, dated 2015)
# Experiments:
# [1] = Root uptake test with radioactively marked boscalid, drench of wheat plants in vermiculite; details: in vivo, 120 h
# Experimental: To test the root systemicity of the ai, radioactively marked boscalid (prepared in analogy to EP 0545099 based on ^14C marked pyridin) was used. For the tests wheat plants in vermiculite were drenched with boscalid/polymer solutions in water/acetone mixtures. As reference boscalid solutions in water/acetone mixtures without polymers were used [25 μl cold active solution (10000 ppm stock solution in acetone), 20 μl hot active solution (0.1 ppm in acetone, 1 μl corresponds to ˜22000 Bcq), 25 μl acetone and 25 μl polymer solution (10000 ppm stock solution in water) were mixed and refilled with water to 10 ml. After 48 and 120 hours leafs were cut from the plant and dissolved in Soluene 350 (60-80% toluene, 20-40% dodecyl(dimethyl)(tetradecyl)ammonium hydroxide, 2.5-10% methanol). Afterwards the radioactivity in the plant material was measured. High radioactivity in the plant material corresponds to high active ingredient uptake.
# [2] = tested on: Alteria, ALTESO P6 (Bayer); assay: Test with pathogenes: tomatoe plants in Hoagland solution with boscalid or boscalid/polymer, infested with fungus; assay type: in vivo; details: for Infestation Rating: Table 3 experiment, untreated = 100%; for Rating (infestation): Table 4 experiment
# Text: To test the polymers with the actual pathogenes, tomatoe plants were directly grown in hoagland solution. Hoagland solution consists of the following ingredients 0.25 v % of 1M KNO3 solution in water, 0.1 v % of 1M MgSO4 solution in water, 0.05 v % of 1M KH2PO4 solution in water, 0.25 v % 1M Ca(NO3)2) solution in water, 0.05 v % of a trace solution consisting of 2.86 g/l H3BO3, 1.81 g/l MnCl2*4H2O, 0.22 g/l ZnSO4*7H2O, 0.08 g/l CuSO4*5H2O, 0.016 g/l MoO3 in water, 0.075 v % Sequestrene 138 Fe consisting of 30 g/l sodium ferric ethylenediamine di-(o-hydroxyphenylacetate) in water, 99.225 v % water sterilized and pH adjusted to 6-6.5 with NaOH.
# After 16 days the plants were transfered to containers with 240 ml boscalid or boscalid/polymer (the ratio boscalid/polymer is 1:1 per weight) solutions (1.3, 0.43, 0.14 and 0.05 ppm) in Hoagland solution containing 0.8 vol % acetone. 6 days after the ai application the plants were infested with fungus (Alteria, ALTESO P6 (Bayer)). After 5 additional days the infestation was rated (column “Infestation Rating”) and plants that had not been treated with ai were used as reference for 100% infestation.
# Two separate experiments were performed. In one test, polymers A and B were tested (see table 3), in the other experiment, polymers C and F were tested (see table 4).
# [3] = Leaf uptake of radioactively marked boscalid applied dropwise to leaves of wheat plants; details: in vivo, 168 h
# Experimental: To test the leaf uptake with polymers water/DMF solutions with radioactively marked boscalid (1 μl cold active solution (10000 ppm solution in DMF), 10 μl hot active solution (0.1 ppm in DMF, ˜2000000 counts/μl), 9 μl polymer solution (1000 ppm solution in water) and 80 μl DMF) were applied dropwise to the leaves of a wheat plants (10 drops per leap. After 48 and 168 hours respectively. The leaves were cut off after the respective time and the excess active on the leaf surface eliminated by stripping the leaf with a cellulose acetate film. The leaves were then dissolved with Soluene 350 to determine the absolute amount of active ingredient that was taken up into the plant. As reference the active was applied in water/DMF solution without polymer.
# [4] = 0.05 ppm active (or polymer/active 1:1)
# [5] = 0.14 ppm active (or polymer/active 1:1)
# [6] = 0.43 ppm active (or polymer/active 1:1)
smiles,measurement,setting,value
"O=C(Nc1ccccc1-c1ccc(Cl)cc1)c1cccnc1Cl [Reference without polymer, boscalid]","Uptake (radioactivity in leaf material, active ingredient uptake)",[1],219 Bcq
same,Infestation Rating,[2]; [4],77%
same,Infestation Rating,[2]; [5],60%
same,Infestation Rating,[2]; [6],13%
same,Infestation Rating,"[2]; 1.3 ppm active (or polymer/active 1:1), rated 5 days after infestation",1%
same,Rating (infestation),[2]; [4],53%
same,Rating (infestation),[2]; [5],47%
same,Rating (infestation),[2]; [6],17%
same,Rating (infestation),[2]; 1.3 ppm active (or polymer/active 1:1),0%
same,Uptake [% applied],[3],1.3 % applied
